# Records with an inconclusive call do not appear.
# Tested on: M. tuberculosis H37Rv growth inhibition, 7H9 media
# Test: M. tuberculosis growth inhibition, HTS (AID 449762);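 note: bacterial growth assessed after seven days of incubation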
# Conditions: for IC90: measured here: IC90 growth inhibition
Structure (SMILES),IC50 [µM],IC90 [µM]
CCCc1ccc2oc(C(=O)N(C)Cc3nccs3)c(C)c2c1,32.1,60.3
CCCN(CCC)CCNC(=O)c1cc2c(-c3ccc(Cl)cc3)nn(C)c2s1,19.5,27.7
NNC(=S)NCc1ccc2c(c1)OCO2,23.8,26.8
CCN(CC)C(=S)SSC(=S)N(CC)CC,0.78,1.53
CCN1c2ccccc2N(C)C1(C)c1ccccc1 (centres undefined),6,6.79
COc1ccccc1C1CCN(Cc2ccc3ccccc3c2)CC1,15.7,21.8
O=C(NC(=S)N1CCc2ccccc21)c1ccc(Br)o1,5.63,9.62
CCCC[C@@H](CN[C@H](C)CNC)NCC1CCC(C(C)(C)C)CC1 (some centres undefined),18,22.7
CCOC(=O)c1sc(C)c2c(=O)n(CC(=O)c3ccc(Br)cc3)nnc12,74.3,> 100
Cc1nn(-c2nc3ccccc3[nH]2)c(N)c1-c1ccc(Cl)cc1,0.21,2.6
COc1ccc(C(=O)OCCNC(=O)c2c(Cl)nc3ccccn23)cc1,10,16.1
Cc1ccc2c(c1)nnn2C1CCN(CC(=O)N2CCN(c3ccc(F)cc3)CC2)CC1,35.3,> 100
S=C(Nc1ccc(Cl)cc1)NC1CC2CCC(C1)N2Cc1ccccc1 (centres undefined),10.9,14.8
CCCCCCCCNC(=O)CCNC(=O)c1ccc(C(C)(C)C)cc1,35.3,44.6
CCOC(=O)c1cc(-c2ccc(N3CCOCC3)cc2)nn1-c1ccccc1,13.4,45.2
CCCCn1cnc2cc(NCc3cccc(OC)c3O)ccc21,80.2,> 100
CCOC(=O)COc1ccc(/C=C2\NC(=S)N(CC)C2=O)cc1,1.17,8.47
CCCOC(=O)/C(=C\c1ccc([N+](=O)[O-])o1)NC(=O)c1ccccc1,11,16.2
CCCC1CCC(C(=O)Nn2c(C)nc3ccccc3c2=O)CC1 (centres undefined),50.1,> 100
Nc1c(C(=O)NC2CCCCC2)nsc1C(=O)OCC(=O)NC1CCCCC1,1.87,6.02
CC(C)(C)c1ccc(C(O)CCCN2CCC(C(O)(c3ccccc3)c3ccccc3)CC2)cc1 (centres undefined),12.2,17.4
CCOC(=O)/C(=N/Nc1ccccc1)c1csc(Nc2ccccc2)n1,34.6,> 100
C=C(C)C1CC=C(CN2CCN(Cc3ccccc3)CC2)CC1 (centres undefined),15.7,25.9

Structure (SMILES),IC50 [µM],IC90 [µM]
CCN1CCN(CCCNC(=O)c2ccc(/C=C3/Oc4ccccc4N(Cc4cccc(C)c4)C3=O)cc2)CC1,29.6,42.2
O=C(OCc1nc2ccccc2s1)c1ccc(Br)o1,18.9,> 100
Cc1ccc(NCCC(=O)c2ccc(Br)cc2)cc1,10.6,21.5
CN1C(=O)/C(=C/c2ccccc2Cl)Sc2ccc(C(=O)NCc3cccnc3)cc21,23.2,68.9
O=S(=O)(c1ccc(Cl)cc1)c1snnc1-c1ccccc1,6.27,51.8
Cc1nn(-c2ccccn2)c2c1-c1nc(N3CCOCC3)ncc1CC2,12.9,> 100
N#Cc1nc(-c2ccc(OCc3ccccc3)cc2)oc1NCCCn1ccnc1,26.7,35.5
COc1cccc(N2CCN(c3ncnc4c3[nH]c3ccccc34)CC2C)c1 (centres undefined),24.2,35.5
COc1ccc(/C=C2\CCC/C(=C\C=N\N(C)C)C2=O)cc1,8.19,16.2
Cc1nn(-c2ccccc2)c(Cl)c1/C=C/C(=O)c1ccccc1,49.1,56.7
CC(C)(C)c1nn(-c2ccccc2)c2[nH]c(=O)c(CNCc3ccc4c(c3)OCO4)cc12,20.4,27.3
CCn1c(C)c(C)c2cc(C(=O)Nc3cccc(Cl)c3)ccc21,35,> 100
CCOc1cccc2cc(C(=O)Nc3nccs3)c(=O)oc12,0.34,29.6
CCCCCCCNC1=CC(=O)CC(c2ccccc2)C1 (centres undefined),41.6,53.9
O=C1CC(/C=C/c2ccc(Cl)cc2)=Nc2ccccc2N1,12.1,14.1
C=CCn1cccc(/C=C/C(=O)c2ccc(C(C)(C)C)cc2)c1=S,27.8,56.5
COc1cc(OC)c(OC)cc1CCC(C)NCCC(c1ccccc1)c1ccccc1 (centres undefined),22.3,25
CC(=O)c1ccc(NC(=O)c2cc(CC(C)C)on2)cc1,11.1,14.4
O=C(NCCN1CCN(c2cccc(Cl)c2)CC1)c1ccc(CSc2nc3ccncc3[nH]2)cc1,23.2,35.3
Oc1ccc(CN2CCc3ccccc3C2)c2cccnc12,61.5,> 100
O=C(CCl)c1ccc2c(c1)CCN2C(=O)C1CCCCC1,16.7,> 100
Cc1csc(NC(=S)Nc2cccc(Cl)c2)n1,2.76,6.01
CCOC(=O)C(C)Sc1ncnc2c1nnn2-c1ccc(F)cc1 (centres undefined),1.19,7.38

Structure (SMILES),IC50 [µM],IC90 [µM]
O=Nc1c2nc3ccccc3n(O)c-2c2ccccc12,10.7,15.7
Cc1nn2c(NCc3ccccn3)cc(C(C)C)nc2c1-c1ccccc1,2.34,3.29
Cc1ccc(CN2CCC(c3cc(-c4ccc(Cl)cc4)n[nH]3)CC2)cc1,11.6,14.8
O=C(OCc1ccccc1F)c1cnc(Cl)c(Cl)c1,13.1,49.8
CCOc1ccc(NC(=O)CCc2nnc3ccc(N4CCC(C)CC4)nn23)cc1,8.75,15.3
Cc1ccc(-c2noc(-c3cc4ccccc4oc3=O)n2)cc1,6.7,> 100
CNc1ccc2nc3ccccc3[n+](C)c2c1,1.29,2.34
O=C(Nc1nnc(-c2ccccc2)o1)c1cc(-c2cccs2)nc2ccccc12,0.89,2.25
Cc1ccc(C(=O)C[n+]2cc(-c3ccc(C)cc3)n3c2CCCCC3)cc1,15.3,19.8
CC1=CC(=O)C(C(C)C)=C/C1=N/OS(=O)(=O)c1ccccc1,1.44,4.12
S=C(NCCN1CCOCC1)N/N=C/c1cccs1,5.55,6.22
CC1=C(C)C(=O)C(CCCCC#CCCCC#CCO)=C(C)C1=O,10.9,18.7
COc1cccc(NC(=O)C2CCN(Cc3cnn(-c4ccccc4)c3-n3cccc3)CC2)c1,48.4,56.2
CN1CCN(CC/C=C2/c3ccccc3Sc3ccc(S(=O)(=O)N(C)C)cc32)CC1,–,> 100
Cc1ccnc(NC(=O)CCc2c[nH]c3ccccc23)c1,25.8,54.4
Cc1nc(-c2ccccc2)sc1C(=O)/C=C/c1ccccc1,10.3,14.5
N#C/C(N=Nc1ccccc1O)=N\Nc1ccccc1O,< 0.2,1.65
CC(OC(=O)COc1ccc(Nc2ccccc2)cc1)C(=O)N(C)c1ccccc1 (centres undefined),< 0.2,4.17
O=[N+]([O-])c1cn(-c2nc(-c3ccco3)cc(C(F)(F)F)n2)cn1,1.77,22
C#CCOCCOCCOCCNc1nc(N2CCN(C(=O)CCCCCCCCCCNC(=O)[C@H](CCCCN)n3cc(CCCC(=O)O)nn3)CC2)nc(N2CCN(C(=O)CCCCCCCCCCNC(=O)[C@H](CCCN=C(N)N)n3cc(C[C@@H](C)CC)nn3)CC2)n1,4.78,5.97
NC(=O)c1cccc(-c2cc(Nc3ccc(OC(F)(F)F)cc3)ncn2)c1,8.46,18.4
CN(CC(=O)Nc1ccc(F)c(F)c1F)c1cnccn1,6.08,12.8
O=C(Nc1nc2ccccc2[nH]1)C12CC3CC(CC(C3)C1)C2,10.3,34.5

Structure (SMILES),IC50 [µM],IC90 [µM]
C[C@@H]1CCCCCCCCC(=O)OCCN[C@H](C)CCCCCCCCC(=O)OCCN[C@H](C)CCCCCCCCC(=O)OCCN1,25.2,29.4
NC(=S)NNc1ccc(Cl)c(Cl)c1,5.81,9.42
Cc1ccc(C(c2nnnn2Cc2cccs2)N2CCN(Cc3ccc4c(c3)OCO4)CC2)cc1 (centres undefined),21,27.9
Clc1cc(Cl)cc(Nc2ncn[nH]2)c1,24.1,> 100
Nc1ccc2c(c1)oc1ccccc12,–,> 100
C=CCNCC(=O)N1N=C(c2ccc3ccccc3c2)CC1c1ccc(OC)cc1 (centres undefined),21.8,24.3
CC(C)c1ccc2c(c1)CCC1C(C)(CN)CCCC21C (centres undefined),15.7,25.6
Cc1cc(C(=O)COC(=O)C2=COCCO2)c(C)n1-c1cccc(F)c1,4.83,> 100
COC(=O)c1c(NC(=S)NN2CCN(C)CC2)sc2c1CCC(C)C2 (centres undefined),23,25.9
CCCCOc1ccc(C(=O)Oc2ccc(C)nc2)cc1,13.8,72.3
COc1ccc2[nH]c3c(C)c4ccncc4c(C)c3c2c1,0.89,2.68
Cc1[nH]n(S(=O)(=O)Cc2ccccc2)c(=O)c1N=Nc1ccccc1Cl,5.57,8.53
Cc1ccnc(NC(=O)COc2ccc3c(c2)CCC3)c1,40.2,> 100
COc1ccccc1N1C(=O)NC(=O)/C(=C/c2ccc([N+](=O)[O-])s2)C1=O,–,> 100
CC(C)OC(=O)/C(C#N)=C/c1ccc(-c2ccc(SC(F)F)cc2)o1,5.28,16.8
CCOc1ccccc1NC(=O)C12CC3CC(C1)CC(c1ccc(C)cc1)(C3)C2,30.1,> 100
CCOC(=O)CSc1nnc(-c2ccc(S(=O)(=O)NCc3cccs3)cc2)o1,2.55,4.55
CN1CCN(Cn2cc(/C=C/C(=O)c3ccccc3)c3ccccc32)CC1,7.95,26.3
Cc1ccc(C(C)C)c(OCC(=O)OCc2c(C)noc2C)c1,2.86,3.29
Cc1ccc(C)c(-c2nn(-c3cc(N4CCN(CCO)CC4)ccc3[N+](=O)[O-])c(=O)c3ccccc23)c1,12.7,28.7
CNc1nc(SCc2ccccc2Cl)nc2c1CCCC2,0.73,2.52
CCOc1ccc(/C=N/OCC(=O)Nc2cc(C)on2)cc1,29.4,> 100

# Source: PubChem BioAssay AID449762 (Southern Research Specialized Biocontainment Screening …, 2010)
